Experimental data: patent US20090263830A1, “VISUALIZATION AND QUANTITIATION OF CELLULAR CYTOTOXICITY USING CELL-PERMEABLE FLUOROGENIC PROTEASE SUBSTRATES AND CASPASE ACTIVITY INDICATOR MARKERS” (Oncoimmunin, Inc., priority 2002, published 2009)

Key:
Jurkat cells = test: Cellular cytotoxicity assay using various apoptosis/caspase activity markers and protease indicators; type: cell-based, human; settings: indicator used for read-out, E:T 5 to 1
EL4 cells = test: Flow-cytometry fluorescence cellular cytotoxicity (FCC) assay, CTL killing of peptide-pulsed target cells; type: cell-based, mouse

“Bis-(N-CBZ-aspartyl-glutamyl-valyl-aspartylamide) Rhodamine 110 [Bis-(N-CBZ-DEVD amide)R22120]” was tested. Which “% Killing” value (Jurkat cells; co-incubation 1 hr) did it give?
The value was 48.0%.

And the “% Killing” value (Jurkat cells; co-incubation 1 hr, listed as bis-(Z-DEVDamide)-Rhodamine 110)?
The value was “markedly lower than the other two protease indicators”.

And the “% Killing” value (Jurkat cells; co-incubation 2 hr)?
The value was 75.4%.

How did the “% of the target cells (CTO+) positive for DEVDase activity” value (EL4 cells) turn out when “MT246-256: irrelevant control polyoma virus peptide middle T protein epitope (SNPTYSVM, SEQ ID NO:22) (Synthetic peptide substrate.)” was run?
Its value is “around 10%”.

B1: PE-labeled Annexin V: phycoerythrin labeled annexin V, cell surface marker of apoptosis (protein, UniProt P08758 2-320, looked up)
Annexin A5: AQVLRGTVTDFPGFDERADAETLRKAMKGLGTDEESILTLLTSRSNAQRQEISAAFKTLFGRDLLDDLKSELTGKFEKLIVALMKPSRLYDAYELKHALKGAGTNEKVLTEIIASRTPEELRAIKQVYEEEYGSSLEDDVVGDTSGYYQRMLVVLLQANRDPDAGIDEAQVEQDAQALFQAGELKWGTDEEKFITIFGTRSVSHLRKVFDKYMTISGFQIEETIDRETSGNLEQLLLAVVKSIRSIPAYLAETLYYAMKGAGTDDHTLIRVMVSRSEIDLFNIRKEFRKNFATSLYSMIKGDTSGDYKKALLLLCGEDD
modifications: phycoerythrin label
notes: phycoerythrin labeled annexin V, cell surface marker of apoptosis
Which results are given for B1?
% Killing (Jurkat cells; co-incubation 1 hr): 65.6%; % Killing (Jurkat cells; co-incubation 1 hr, listed as phycoerythine (PE) labeled annexin V): 65.5%
